These are literature values, as cited in patent publication EP1204793B1, “STABLE SILICONE OIL EMULSION COMPOSITION, ARTICLE OF MANUFACTURE, AND METHOD OF FABRIC WRINKLE CONTROL” (THE PROCTER & GAMBLE COMPANY, priority 1999, dated 2001).

Counter-ions that a name gives are not always drawn.

For `[H]/N=C(\N/C(=N/[H])NCCCCCCNC(=N)NC(=N)Nc1ccc(Cl)cc1)Nc1ccc(Cl)cc1` [diacetate salt, 1,1'-hexamethylene bis(5-(p-chlorophenyl)biguanide)], the solubility in water result is reported as “about 1.8%”. As to `[H]/N=C(\N/C(=N/[H])NCCCCCCNC(=N)NC(=N)Nc1ccc(Cl)cc1)Nc1ccc(Cl)cc1` [digluconate salt, 1,1'-hexamethylene bis(5-(p-chlorophenyl)biguanide)], the solubility in water result is on record as “about 70%”.
